The experiment concerns IL-1β/IL-1R1 dependent signaling. The experiment can be described thus: HEK-Blue IL-33/IL-1β reporter cells (SEAP) stimulated with IL-1β. It counts as cell-based. The following applies: FIG. 15; for IL-1β/IL-1R1 dependent signaling (NF-κB and AP-1): HEK Blue reporter cells stimulated with IL-1. The source says:
HEK-Blue™ IL-33/IL-1β cells were purchased from InvivoGen. These cells were transfected with a reporter gene, secreted embryonic alkaline phosphatase (SEAP), under the control of the IFN-β minimal promoter fused to five NF-κB and five AP-1 binding sites. In the presence of bioactive IL1β and/or IL33, HEK-Blue cells activate the NF-κB and AP-1 pathways triggering the production of SEAP. SEAP activity in cell supernatant is quantified using a colorimetric enzyme assay (QUANTI-Blue™, InvivoGen).
HEK Blue IL-33/IL-1β Reporter Cells. HEK-Blue™ IL-33/IL-1β Cells were purchased from InvivoGen. These cells were generated by transfection with a reporter gene, secreted embryonic alkaline phosphatase (SEAP), under the control of the IFN-β minimal promoter fused to five NF-κB and five AP-1 binding sites. In the presence of bioactive IL-1β and/or IL-33, HEK-Blue cells activated the NF-κB and AP-1 pathways triggering the production of SEAP. SEAP activity in cell supernatant was quantified using a colorimetric enzyme assay (QUANTI-Blue™, InvivoGen). HEK Blue cells were grown in DMEM, 4.5 g/l glucose, 2 mM L-Glutamine, 10% (v/v) heat-inactivated fetal bovine serum (30 min at 56° C.). After two passages, cells were exposed to selective medium (DMEM, 4.5 g/l glucose, 2 mM L-Glutamine, 10% heat-inactivated FBS (v/v) with of blasticidin (30 μg/ml), hygromycin B ([…]), and Zeocin™ ([…])). Cells were then plate in 96 well plates (10,000 cell per well) and stimulated with IL-1β (1 ng) and IL-33 (5 ng) in presence or absence of inhibitors.

Bridge positions count the residues as written; N and C are the ends. Ends that are not written are not given here.

As for “TINQSCSHSRTQNQTRTQCLS (disulfide 6-19 (inferred)) [RedAgg_Cycl, Arg286 peptide with glutamine replacements and two cysteines forming a disulfide bridge]”, the “IL-1β/IL-1R1 dependent signaling (NF-κB and AP-1)” value is given as “inhibit IL-1β/IL-1R1 dependent signaling”.
For the substance TNFα [reference compound], for the setting “cytokine used instead of IL-1 as stimulus”, the “signaling activity of cytokine specificity controls” value was “no significant signaling activity”.
Take TINESCSHSRTEDETRTQCLS [Cycl]: the “IL-1β/IL-1R1 dependent signaling (NF-κB and AP-1)” value is recorded as “inhibit IL-1β/IL-1R1 dependent signaling”.
On the same count and under the same terms, under “TINQSISHSRTQNQTRTQILS (Synthetic construct RedAgg) [Arg286 peptide with glutamic acid replaced by glutamine to reduce aggregation]” stands “inhibit IL-1β/IL-1R1 dependent signaling”; under “TINESISHSRTEDETRTQILS (Synthetic construct Arg286)”, “inhibit IL-1β/IL-1R1 dependent signaling”.

Values taken from patent US10927155B2, “Dual inhibitory action peptidomimetic inhibitor for IL-33 and IL-1beta” (GEORGE MASON UNIVERSITY, priority 2015, dated 2021).
